Test results taken from patent US11607378B2, “Cosmetic composition comprising amide-based compound” (Neopharm Co., Ltd., priority 2020, dated 2023).

Legend:
[1] = test system: reactive oxygen species (ROS) in dermal fibroblasts; assay: Effect of removing reactive oxygen species (ROS), DCF-DA fluorescence image; assay type: cell-based, human; settings: blue light 40 J/cm^2, sample 100 μM, 24 hours, DCF-DA (FIG. 2)
Protocol: An effect of removing the reactive oxygen species was determined for the samples of Examples and Comparative Examples of the present invention.
An image analysis for generation of reactive oxygen species (ROS) in the cells was carried out by seeding 1×10^5 (100 μL/well) dermal fibroblasts in a 12-well plate to which a cover slip was attached. The dermal fibroblasts were exposed to blue light of 40 J/cm^2, and then treated with each of the samples (100 μM) of Examples and Comparative Examples. Then, the cells were additionally cultured at 37° C. for 24 hours.
After 24 hours, 100 μM DCF-DA was put into each well, and the cells were cultured at 37° C. for 45 minutes. After the cells were washed with PBS, the stained cells were put on a microscope slide containing a mounting medium. A microscopic image was observed as a fluorescent microscopic image.

p16^INK4A = assay: Expression level of p16^INK4A by Western blot after blue light; assay type: cell-based; settings: human dermal fibroblasts, blue light 40 J/cm^2, sample 100 μM, 24 hours, Western blot (FIG. 1)
Protocol: (1) An expression level of p16^INK4A was determined through Western blot in Examples and Comparative Examples of the present invention.
Specifically, human dermal fibroblasts were cultured in a 12-well plate containing a Dulbecco's modified eagle medium (DMEM) medium supplemented with 10% fetal bovine serum (FBS) to attach 1.5×10^5 (1 mL/well) human dermal fibroblasts to the 12-well plate. The human dermal fibroblasts were cultured for 24 hours, and the medium was replaced with a 1% fetal bovine serum medium. Then, the human dermal fibroblasts were exposed to blue light of 40 J/cm^2, and then treated with each of the samples (100 μM) of Examples and Comparative Examples. Thereafter, the cells were additionally cultured at 37° C. for 24 hours. Then, the cells were recovered, and each of these samples was subjected to Western blot to analyze an expression level of p16^INK4A in the dermal fibroblasts. Each of samples of Examples 1 and 2 and Comparative Example 1 including the amide-based compound having a structure shown in the following Table 1 was used as the sample.
The control of FIG. 1 represents an experimental group in which the cells were not treated with the sample, and (-) represents a result of the experimental group exposed to blue light.

[2] = test system: carbonylated protein in artificial skin (EpiDermFT); assay: Effect on generation of carbonylated protein in artificial skin (DNPH assay, ICC staining); assay type: cell-based; settings: sample 0.3% 50 μL, blue light 40 J/cm^2, 48 hours, image J quantification (FIG. 4)
Protocol: An artificial skin (EpiDermFT™ from MatTek, Ashland, USA) was purchased, and then stabilized for 18 hours in an exclusive medium (EFT-400). 50 μL of each of the samples of Examples and Comparative Examples was applied to the artificial skin at a concentration of 0.3%, and then cultured for an hour. The artificial skin was exposed to blue light of 40 J/cm^2. After 48 hours, the artificial skin tissue was fixed in 10% formaldehyde, and embedded into paraffin. Thereafter, the tissue was microtomed into sections with a size of […]. Then, the microtomed tissue was used to confirm an effect on a change in activity of the carbonylated protein.
The tissue was stained by a DNPH assay using an immunocytochemical (ICC) staining method, and then observed in a fluorescent microscopic image. Thereafter, the microscopic image was digitized using an image J program.

[3] = test system: superoxide dismutase (SOD); assay: Effect on antioxidant activity (Superoxide Dismutase Activity Assay kit) after blue light; assay type: cell-based, human; settings: dermal fibroblasts, blue light 40 J/cm^2, sample 100 μM, 48 hours (FIG. 3)
Protocol: Effects of the samples of Examples and Comparative Examples of the present invention on a change in antioxidant activity after irradiation with blue light were confirmed.
Specifically, 1.5×10^5 (1 mL/well) dermal fibroblasts were seeded in a 6-well plate, and cultured for 24 hours. The dermal fibroblasts were exposed to blue light of 40 J/cm^2, and then treated with each of the samples (100 μM) of Examples and Comparative Examples. After 48 hours, the cells were recovered. The cells were dissolved in a cell lysis buffer (pH 7.4) containing 0.1 M Tris/HCl, 0.5% Triton X-100, 5 mM β-ME, and 0.1 mg/ml PMSF, and a supernatant separated by centrifugation was then analyzed using a Superoxide Dismutase Activity Assay kit (ab65354). Then, the absorbance was measured at a wavelength of 450 nm in a microplate reader.

SMILES | inhibiting the generation of reactive oxygen species and removing the generated reactive oxygen species [1] | expression level of p16^INK4A (p16^INK4A) | carbonylated protein (which had increased by 72.04% by blue light) [2] | SOD activity (which had been reduced by 32.64% by blue light) [3]
CCCCC(CC)C(=O)NC(CO)CO (centres unmarked) [Comparative Example 1, N-(1,3-dihydroxypropan-2-yl)-2-ethylhexanamide, reference compound] | did not exhibit a significant effect | 120% |  | 
CCCCC(C)C(=O)NCCO (centres unmarked) [Example 2, N-(2-hydroxyethyl)-2-methyl-hexanamide] |  | 53.9% | 16.67% | 92.3%
